Where “and” joins values, the source holds several entries; their conditions need not be identical. Equal values may be shown once. Read-outs that look alike come from different tables or passages of the source.
Columns and labels:
[1] = tested on: LmCPb antigen; assay type: in vivo, CBA mice; conditions: 2 injections LmCPb with adjuvant
[2] = tested on: monocytes and DC-6 cells; experiment: IL-12 p70 production by monocytes and DC-6 cells (ELISA); conditions: 10 μg/ml, in presence of γ IFN; FIGS. 11, 12
[3] = tested on: LmCPb antigen; experiment: Primary response to single injection of LmCPb antigen: in vitro cytokine secretion by lymph node lymphocytes (ELISA); assay type: in vivo, CBA mice; conditions: single injection LmCPb + adjuvant
Protocol: (§1) CBA mice were administered through the tail a single injection of LmCPb in a 2 μg dose either in combination or not with 50 μg of OM-294-MP adjuvant. A control group was administered one injection of physiological saline buffer (non immunized subjects). Eleven days later, cells of the inguinal and periaortic lymph nodes (groups of 3 mice each) were cultured and the proliferative response directed to the purified LmCPb antigen, to a preparation of whole amastigotes of Leishmania mexicana and to concanvalin A (ConA) was evaluated by measuring tritiated thymidine take-up (^3H-TdR). γ IFN and IL-4 cytokine production by lymph node lymphocytes rechallenged in vitro with LmCPb antigen of Leishmania mexicana or by amastigotes was equally determined by ELISA (MIF00 γ IFN & M4000 IL-4 kits, R&D Systems Europe Ltd, Abingdon, UK) using a sample of each culture supernatant of lymph node lymphocytes before addition of ^3H-TdR.
(§2) Values reported in the tables stand for the mean value±standard deviation (triplicate) expressed in cpm for ^3H-TdR take-up and the arithmetic mean±standard deviation (triplicate) expressed in pg per ml for cytokine production in supernatant fluids.
(§3) Antigen: LmCPb stock solution is prepared at a concentration of 40 μg/ml in PBS (2×).
(§4) The negative control consists of a PBS solution without antigen.
(§5) Antigen-adjuvant mixture: Adjuvants are maintained for 10 minutes at 37° C. before vortexing for 3 minutes. Then, the antigen (1 volume) and the adjuvant (1 volume) are mixed and vortexed briefly before being incubated for 20 minutes at 37° C., and finally the whole mixture is vortexed again for 3 minutes.

[4] = tested on: mouse bone marrow stem cells; experiment: Bone marrow stem cell proliferation (XTT); assay type: cell-based, C57/BL6 mice; conditions: 7 days incubation, FIG. 1
Protocol: Two six-week old male C57/BL6 mice were killed by CO2 inhalation followed by cervical dislocation. The mice were washed with alcohol, and the skin of the posterior members was entirely removed. The hip, femur and tibia bones were removed by joint disruption. The flesh was grossly removed using a scalpel. The bones were cleaned and the bone ends were cut with scissors. The marrrow was extracted from the bone lumen by injecting three times 1 ml of Dulbecco's Modified Eagle Medium (DH medium) from the extremities which were cut with scissors. The cells were suspended in DH medium and centrifuged at 300×g for 5 minutes. The supernatant fluid was discarded and the stem cells were suspended in DH medium supplemented with 20% foetal calf serum (FCS) The cell concentration was adjusted to 500 000 cells/ml. […]
Proliferation is determined by measuring the oxydation of a chromogenic substrate (XTT) in mitochondria of viable cells.
7 days later, the microtiter plates are centrifuged for 5 minutes at 400×g, and 100 μl of the supernatant fluid are withdrawn and discarded. […] After 8 hour incubation at 37° C. under 8% CO2 in an incubator at 100% RH, the microtiter plates are read with a spectrophotometer at 480 nm against a standard at 690 nm.
The results are expressed as mean values (+standard deviation) by plotting a dose versus response curve. […]

[5] = tested on: predendritic cells (DC-6); experiment: Dendritic cell maturation: FITC-Dextran conjugate incorporation; conditions: 0.02% g to 25 μg per ml; FIGS. 4, 5
[6] = tested on: LmCPb antigen; experiment: Primary response to single injection of Leishmania mexicana LmCPb antigen: lymph node cell proliferation (3H-TdR take-up); assay type: in vivo, CBA mice; conditions: single injection LmCPb 2 μg + 50 μg adjuvant
Protocol: as §1, §2, §3, §4, §5

[7] = in vitro: Amastigotes 17 × 10^−6/ml

Structure (SMILES): CCCCCCCCCCCC(=O)O[C@H](CCCCCCCCCCC)CC(=O)NC(CCOP(=O)(O)O)C(=O)NCCCC(COP(=O)(O)O)NC(=O)C[C@H](O)CCCCCCCCCCC (stereo partly drawn) [OM-294-DP, 3-[(R)-3-dodecanoyloxytetradecanoylamino]-4-oxo-5-aza-9-[(R)-3-hydroxytetradecanoylamino]decan-1,10-diol 1, 10-bis(dihydrogenphosphate)]
- IL-4 concentration [1, 7]: 130 pg/mL and 110 pg/mL
- γ IFN concentration [1, 7]: >600 pg/mL
- γ IFN concentration ([1]; in vitro: Con A 5 μg/ml): 1200 pg/mL and 1900 pg/mL
- IL-4 concentration ([1]; in vitro: LmCPb 15 μg/ml): 110 pg/mL and 88 pg/mL
- γ IFN concentration ([1]; in vitro: LmCPb 15 μg/ml): 520 pg/mL and 360 pg/mL
- IL-4 concentration ([1]; in vitro: No stimulant): <8 pg/mL
- γ IFN concentration ([1]; in vitro: No stimulant): 460 pg/mL and 240 pg/mL

Structure (SMILES): CCCCCCCCCCCC(=O)O[C@H](CCCCCCCCCCC)CC(=O)NC(CCOP(=O)(O)O)C(=O)NCCCC(CO)NC(=O)C[C@H](O)CCCCCCCCCCC (stereo partly drawn) [OM-294-MP, 3-[(R)-3-dodecanoyloxytetradecanoylamino]-4-oxo-5-aza-9-[(R)-3-hydroxytetradecanoylamino]-decane-1,10-diol 1-dihydrogenphosphate]
- IL-12 p70 production in monocytes and DC-6 cells [2]: induced in presence of γ IFN
- γ IFN production ([3]; in vitro: Amastigotes): 320 pg/mL
- IL-4 production ([3]; in vitro: Amastigotes 17 × 10^−5/ml): 65 pg/mL
- IL-4 production ([3]; in vitro: Con A 5 μg/ml): 360 pg/mL
- γ IFN production ([3]; in vitro: Con A 5 μg/ml): >1800 pg/mL
- IL-4 production ([3]; in vitro: LmCPb 15 μg/ml): 130 pg/mL
- γ IFN production ([3]; in vitro: LmCPb 15 μg/ml): 480 pg/mL
- IL-4 production ([3]; in vitro: No challenge): <8 pg/mL
- γ IFN production ([3]; in vitro: No stimulant): 25 pg/mL
- cell proliferation of mouse bone marrow stem cells [4]: more moderate response than the diphosphorylated product
- differenciation of DC-6 into DC-9 cells (dose vs. response of FITC-Dextran incorporation) [5]: outstanding capacity to induce differenciation of DC-6 into DC-9 cells
- 3H-TdR take-up ([6]; in vitro: Amastigotes 1.9 × 10^−6/ml): 44 ± 7 cpm × 10^−3/ml
- 3H-TdR take-up ([6]; in vitro: Amastigotes 6 × 10^−6/ml): 79 ± 6 cpm × 10^−3/ml
- 3H-TdR take-up [6, 7]: 119 ± 4 cpm × 10^−3/ml
- 3H-TdR take-up ([6]; in vitro: Con A 5 μg/ml): 196 ± 10 cpm × 10^−3/ml
- 3H-TdR take-up ([6]; in vitro: LmCPb 0.6 μg/ml): 19 ± 4 cpm × 10^−3/ml
- 3H-TdR take-up ([6]; in vitro: LmCPb 1.7 μg/ml): 40 ± 4 cpm × 10^−3/ml
- 3H-TdR take-up ([6]; in vitro: LmCPb 5 μg/ml): 80 ± 5 cpm × 10^−3/ml
- 3H-TdR take-up ([6]; in vitro: LmCPb 15 μg/ml): 140 ± 10 cpm × 10^−3/ml
- 3H-TdR take-up ([6]; in vitro: No stimulant): 11 ± 2 cpm × 10^−3/ml

— US7157092B1, “Acyl pseudodipeptides, preparation method and pharmaceutical compositions containing same” (Om Pharma, priority 1998, dated 2007)
